Measured values: EP4094762A1, “TREATMENT OF NEUROLOGICAL INDICATIONS” (UCL Business Ltd, priority 2021, dated 2022)

Target: T1, P2Y1 receptor (Homo sapiens, UniProt P47900)
T1 construct: expressed in transfected cells
Test: Cell based HTRF assay measuring IP1 accumulation; antagonism of the P2Y1 agonist MRS2365
Conditions: rounded to nearest whole number; read-out: IC50 IP1
Description: IC50 values were determined using a cell based assay in stably transfected cells overexpressing the P2Y1 receptor. The assay system is a high throughput […] assay measuring accumulation of the intracellular messenger inositol monophosphate (IP1), generated intracellularly following activation of P2Y1.
P2Y1 overexpressing cells were maintained in T175 flasks. The day before the assay, these cells were split and 20µl cell suspension transferred to each well of white 384-well assay plates at a cell density of 0.5x10^6 cells/mL. Plates were pulse centrifuged, then incubated overnight at 37°C / 5% CO2 prior to assay.
On day of assay, medium was removed from cells and replaced with stimulation buffer. […] Positive control antagonist curves with standard compounds were included on each plate. Plates were incubated with antagonists for 1 hour prior to addition of 5nM of the agonist MRS2365, dispensed using a Bravo liquid handler. Following agonist addition, plates were incubated for 60 minutes prior to assay. Both incubations were carried out at 37°C / 5% CO2.
For the assay, IP1 accumulation was quantified using the IPOne kit according to manufacturer's instructions. In short, a standard curve was prepared for IP1 quantification, and cells lysed using kit lysis buffer. Assay reagents were added to the lysates, and incubated for 1 hour at room temperature without spinning or shaking. Plates were analysed on a BMG Pherastar plate reader, and IP1 signal generated in cells interpolated from the standard curve.

T1 sequence (P47900 whole entry): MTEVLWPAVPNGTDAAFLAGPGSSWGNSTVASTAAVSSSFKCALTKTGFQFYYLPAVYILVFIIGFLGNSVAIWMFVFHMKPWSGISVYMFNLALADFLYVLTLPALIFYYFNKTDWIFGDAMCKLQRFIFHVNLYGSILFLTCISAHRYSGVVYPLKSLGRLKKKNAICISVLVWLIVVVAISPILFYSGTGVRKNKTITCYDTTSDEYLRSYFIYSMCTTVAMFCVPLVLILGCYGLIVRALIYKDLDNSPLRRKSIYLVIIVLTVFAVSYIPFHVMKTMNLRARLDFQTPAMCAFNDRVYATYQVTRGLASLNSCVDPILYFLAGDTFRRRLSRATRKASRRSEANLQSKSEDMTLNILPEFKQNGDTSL

SMILES | IC50
O=C(Nc1ccc(OC(F)(F)F)cc1)Nc1cccnc1Oc1cccc(OCc2ccccc2)c1 [S40] | 924 nM
O=C(Nc1ccc(OC(F)(F)F)cc1)Nc1cccnc1Oc1ccccc1N1CCCCC1 [S33] | 632 nM
O=C(Nc1ccc(OC(F)(F)F)cc1)Nc1cccnc1Oc1cccc(N2CCOCC2)c1 [S83] | 8730 nM
Cc1c(Oc2ncccc2NC(=O)Nc2ccc(OC(F)(F)F)cc2)cccc1N(C)C [S12] | 151 nM
C=Cc1cnc(Oc2ccccc2C)c(NC(=O)Nc2ccc(OC(F)(F)F)cc2)c1 [S67] | 3350 nM
COc1ccc(Br)c(Oc2ncccc2NC(=O)Nc2ccc(OC(F)(F)F)cc2)c1 [S78] | 7160 nM
CC(C)(C)c1ccccc1Oc1ncccc1NC(=O)NC1CC2(C1)CN(CC(F)(F)F)C2 [S76] | 7070 nM
Cc1ccccc1Oc1ncc(C(F)(F)F)cc1NC(=O)Nc1ccc(OC(F)(F)F)cc1 [S69] | 4390 nM
CC(C)(C)c1ccccc1Oc1ncc(-c2cccc(C#N)c2)cc1NC(=O)Nc1ccc(OC(F)(F)F)cc1 [S56] | 1960 nM
CC(C)(C)c1ccccc1Oc1ncccc1NC(=O)NCc1ccc(OC(F)(F)F)cc1 [S21] | 301 nM
Cn1cc(-c2cccc(Oc3ncccc3NC(=O)Nc3ccc(OC(F)(F)F)cc3)c2)cn1 [S82] | 8180 nM
Cc1c(Oc2ncccc2NC(=O)Nc2ccc(OC(F)(F)F)cc2)cccc1-c1ccc2c(c1)OCCN2 [S49] | 1240 nM
Cc1c(C#N)cccc1Oc1ncccc1NC(=O)Nc1ccc(OC(F)(F)F)cc1 [S44] | 1030 nM
O=C(Nc1ccc(OC(F)(F)F)cc1)Nc1cccnc1Oc1ccccc1 [S65] | 2860 nM
Cc1ccnc(Oc2ccccc2C(C)(C)C)c1NC(=O)Nc1ccc(OC(F)(F)F)cc1 [S22] | 302 nM
Cc1c(Oc2ncccc2NC(=O)Nc2ccc(OC(F)(F)F)cc2)cccc1-c1cnn(C)c1 [S61] | 2460 nM
CC(C)(C)c1ccc(O)c(Oc2ncccc2NC(=O)Nc2ccc(OC(F)(F)F)cc2)c1 [S42] | 948 nM
Cc1ccccc1Oc1ncncc1NC(=O)Nc1ccc(OC(F)(F)F)cc1 [S81] | 8120 nM
CC(C)c1cccc(C(F)F)c1Oc1ncccc1NC(=O)Nc1ccc(OC(F)(F)F)cc1 [S30] | 574 nM
O=C(Nc1ccc(OC(F)(F)F)cc1)Nc1cccnc1Oc1cccc(O)c1 [S52] | 1410 nM
Cc1c(Oc2ncccc2NC(=O)Nc2ccc(OC(F)(F)F)cc2)cccc1N1CCC2(CC1)COC2 [S36] | 732 nM
CC(C)(C)c1ccccc1Oc1ncccc1NC(=O)NCCc1ccccc1 [S43] | 958 nM
N#Cc1cccc(Oc2ncccc2NC(=O)Nc2ccc(OC(F)(F)F)cc2)c1 [S73] | 5840 nM
Cc1ccccc1Oc1ncc(NC2CCOCC2)cc1NC(=O)Nc1ccc(OC(F)(F)F)cc1 [S84] | 8990 nM
Cc1c(Oc2ncccc2NC(=O)Nc2ccc(OC(F)(F)F)cc2)cccc1-c1cccc(C#N)c1 [S27] | 512 nM

SMILES | IC50
Cc1c(Oc2ncccc2NC(=O)Nc2ccc(OC(F)(F)F)cc2)cccc1-c1ccc(C#N)cc1 [S16] | 202 nM
Cc1c(Oc2ncccc2NC(=O)Nc2ccc(OC(F)(F)F)cc2)cccc1N1CC2CC1CO2 (stereo not drawn) [S59] | 2140 nM
CC(C)(C)c1ccccc1Oc1ncccc1NC(=O)Nc1nc2ccc(Cl)nc2s1 [S17] | 209 nM
Cc1ccccc1Oc1ncc(Br)cc1NC(=O)Nc1ccc(OC(F)(F)F)cc1 [S72] | 4940 nM
Cn1cc(-c2cnc(Oc3ccccc3C(C)(C)C)c(NC(=O)Nc3ccc(OC(F)(F)F)cc3)c2)cn1 [S48] | 1110 nM
Cc1c(Oc2ncccc2NC(=O)Nc2ccc(OC(F)(F)F)cc2)cccc1S(C)(=O)=O [S75] | 6590 nM
Cc1c(Oc2ncccc2NC(=O)Nc2ccc(OC(F)(F)F)cc2)cccc1-c1ccc2ccn(C)c2c1 [S37] | 778 nM
CC(C)(C)c1ccccc1Oc1ncc(-c2ccccc2)cc1NC(=O)Nc1ccc(OC(F)(F)F)cc1 [S79] | 7580 nM
CC(c1ccccc1Oc1ncccc1NC(=O)Nc1ccc(OC(F)(F)F)cc1)N1CCCCC1 (stereo not drawn) [S74] | 6000 nM
N#Cc1ccc(-c2cccc(Oc3ncccc3NC(=O)Nc3ccc(OC(F)(F)F)cc3)c2)cc1 [S71] | 4940 nM
Cc1c(Oc2ncccc2NC(=O)Nc2ccc(OC(F)(F)F)cc2)cccc1-c1cccc(CN(C)C)c1 [S85] | 9530 nM
Cc1cnc(Oc2cccc(N3CCCCC3)c2C)c(NC(=O)Nc2ccc(OC(F)(F)F)cc2)c1 [S64] | 2810 nM
CC(C)(C)c1ccccc1Oc1ncncc1NC(=O)Nc1ccc(OC(F)(F)F)cc1 [S18] | 236 nM
Cc1c(Oc2ncccc2NC(=O)Nc2ccc(OC(F)(F)F)cc2)cccc1N1CCCC1 [S35] | 655 nM
CC(C)(C)c1ccccc1Oc1ccsc1NC(=O)Nc1ccc(OC(F)(F)F)cc1 [S45] | 1060 nM
CC(C)(C)c1ccccc1Oc1ncccc1NC(=O)Nc1ccc2c(c1)OC(F)(F)O2 [S6] | 76 nM
Cc1cccc(Oc2ncccc2NC(=O)Nc2ccc(OC(F)(F)F)cc2)c1Br [S24] | 398 nM
Cc1c(Br)cccc1Oc1ncccc1NC(=O)Nc1ccc(OC(F)(F)F)cc1 [S28] | 513 nM
C#Cc1cnc(Oc2ccccc2C)c(NC(=O)Nc2ccc(OC(F)(F)F)cc2)c1 [S68] | 3590 nM
CC(C)(C)c1ccccc1Oc1nccc(O)c1NC(=O)Nc1ccccc1 [S54] | 1770 nM
CC(C)(C)c1ccccc1Oc1ncc(-c2ccc3c(c2)OCCN3)cc1NC(=O)Nc1ccc(OC(F)(F)F)cc1 [S26] | 493 nM
CC(C)(C)c1ccccc1Oc1ncc(Br)cc1NC(=O)Nc1ccc(OC(F)(F)F)cc1 [S29] | 514 nM
CC(C)(O)c1ccccc1Oc1ncccc1NC(=O)Nc1ccc(OC(F)(F)F)cc1 [S77] | 7120 nM
O=C(Nc1ccc(OC(F)(F)F)cc1)Nc1cccnc1Oc1cccc(-c2ccccc2)c1 [S39] | 827 nM
CC(C)(C)c1cccc(Oc2ncccc2NC(=O)Nc2ccc(OC(F)(F)F)cc2)c1 [S20] | 276 nM

Continued, values first:

IC50 | SMILES
9680 nM | CCOC(=O)c1nnc(NC(=O)Nc2cccnc2Oc2ccccc2C(C)(C)C)s1 [S86]
7940 nM | O=C(Nc1ccc(F)cc1F)Nc1cccnc1Oc1ccc(C(F)(F)F)cc1 [S80]
4590 nM | Cc1ccccc1COc1ncccc1NC(=O)Nc1ccc(OC(F)(F)F)cc1 [S70]
2510 nM | N#Cc1cccc(-c2cccc(Oc3ncccc3NC(=O)Nc3ccc(OC(F)(F)F)cc3)c2)c1 [S63]
2470 nM | COc1ccc([C@H](C)NC(=O)Nc2cccnc2Oc2ccccc2C(C)(C)C)cc1 [S62]
2100 nM | CC(C)(C)c1ccccc1Oc1ncc(-c2ccc(C#N)cc2)cc1NC(=O)Nc1ccc(OC(F)(F)F)cc1 [S58]
1990 nM | Cc1ccccc1Oc1ncc(C(F)F)cc1NC(=O)Nc1ccc(OC(F)(F)F)cc1 [S57]
1970 nM | Cc1ccc(C)c(Oc2ncccc2NC(=O)Nc2ccc(OC(F)(F)F)cc2)c1 [S55]
1770 nM | CC(C)(C)c1ccccc1Oc1nnccc1NC(=O)Nc1ccc(OC(F)(F)F)cc1 [S53]
1320 nM | O=C(Nc1ccc(OC(F)(F)F)cc1)Nc1cccnc1Oc1cccc(Br)c1 [S51]
1280 nM | O=C(Nc1ccc(OC(F)(F)F)cc1)Nc1cccnc1Oc1cc(O)ccc1Br [S50]
1100 nM | Cc1cccc(Oc2ncccc2NC(=O)Nc2ccc(OC(F)(F)F)cc2)c1 [S47]
925 nM | O=C(Nc1ccc(OC(F)(F)F)cc1)Nc1cccnc1Oc1ccccc1Br [S41]
640 nM | CC(C)(C)c1ccccc1Oc1ncccc1NC(=O)NCCCc1ccccc1 [S34]
607 nM | O=C(Nc1ccc(OC(F)(F)F)cc1)Nc1cccnc1Oc1cccc(N2CCCCC2)c1 [S31]
332 nM | Cc1c(Oc2ncccc2NC(=O)Nc2ccc(OC(F)(F)F)cc2)cccc1N1CCOCC1 [S23]
264 nM | CC(C)(C)c1ccccc1Oc1ncc(C#N)cc1NC(=O)Nc1ccc(OC(F)(F)F)cc1 [S19]
179 nM | CC(C)c1ccc(C(F)F)cc1Oc1ncccc1NC(=O)Nc1ccc(OC(F)(F)F)cc1 [S15]
173 nM | O=C(Nc1ccc(OC(F)(F)F)cc1F)Nc1cccnc1Oc1ccccc1S(F)(F)(F)(F)F [S14]
151 nM | Cc1cnc(Oc2ccccc2C(C)(C)C)c(NC(=O)Nc2ccc(OC(F)(F)F)cc2)c1 [S13]
124 nM | O=C(Nc1ccc(OC(F)(F)F)cc1)Nc1cccnc1Oc1ccccc1S(F)(F)(F)(F)F [S10]
99 nM | Cc1c(Oc2ncccc2NC(=O)Nc2ccc(OC(F)(F)F)cc2)cccc1-c1ccccc1 [S7]
57 nM | CC(C)(C)c1ccccc1Sc1ncccc1NC(=O)Nc1ccc(OC(F)(F)F)cc1 [S3]

Tested on: not listed separately
Test: CNS penetration: intravenous cassette pharmacokinetic study, brain and plasma by LC-MS/MS
Conditions: mouse, intravenous
Description: To assess penetration of compounds into the mouse central nervous system, intravenous pharmacokinetic studies were undertaken in C57B16/J mice. […] Compounds were then combined into a single dosing solution and administered together via the intravenous route into 24 mice. Total compound dose administered to each mouse was 2mg/kg. Mice were culled at various times post dosing and brain and plasma collected for bioanalysis. In particular, mice were culled and plasma collected for bioanalysis at 8 time points out to 24 hours post dosing. Brains were also collected for bioanalysis at various time points to assess CNS penetration. 2 hour and 4 hour brain collection was carried out in all studies. Additional time points were collected in selected studies.
For bioanalysis, compounds were prepared in DMSO and aliquoted together to ensure a final concentration of 1mg/mL per compound in DMSO. Analytical standards were prepared from the initial 1mg/mL stock solution of compound, with a 12-point standard curve range from 0.5ng/mL to 2000ng/mL, with independent quality control tests from 1ng/mL to 1000ng/mL run to validate the standards. All standards and QC samples were matrix matched to eliminate possible suppression. Plasma samples were prepared with a 1:10 dilution in plasma. […] Dose solutions were diluted in a control matrix to a relative concentration that fell on the standard curve. Cold acetonitrile containing internal standard was added to all samples, standards, dose samples and QC samples; samples were then centrifuged for 30 minutes at 4000rpm. After centrifugation, supernatant was transferred to a new 96-well plate, diluted with an equal volume of water and mixed thoroughly before LC-MS analysis.
Supernatents were analysed by LC-MS/MS. From the analysis data a response ratio was obtained using the formula Response Ratio = Test Peak Area/Internal Standard Peak Area. From the standard curve, the test peak area was converted to concentration of test compound.
To establish CNS penetration, the ratio of the concentration of each compound in the plasma samples to the brain samples was assessed.

SMILES | CNS penetration (in words)
CC1(C)CN(c2ccccc2NC(=O)Nc2ccc(OC(F)(F)F)cc2)c2c(O)ccc(-c3ccc(Cl)cc3)c21 [RS1, 1-(2-(4-(4-chlorophenyl)-7-hydroxy-3,3-dimethylindolin-1-yl)phenyl)-3-(4-(trifluoromethoxy)phenyl)urea, reference compound] | no apparent CNS penetration
Cc1ccc(NC(=O)Nc2ccc(OC(F)(F)F)cc2)c(Oc2ccccc2C(C)(C)C)n1 [RS2, 1-(2-(2-(tert-butyl)phenoxy)-6-methylpyridin-3-yl)-3-(4-(trifluoromethoxy)phenyl)urea, reference compound] | no apparent CNS penetration
